Experimental findings from patent US20220041606A1, “POSITIVE ALLOSTERIC MODULATORS OF THE MUSCARINIC ACETYLCHOLINE RECEPTOR M1” (Vanderbilt University, priority 2020, published 2022) are described below.

The target of assay [1] is T1, human mAChR M1 (Homo sapiens, UniProt P11229).
T1 construct: host or cells: CHO-K1 cells (ATCC), stably transfected using Lipofectamine2000
T1 sequence (P11229 1-460): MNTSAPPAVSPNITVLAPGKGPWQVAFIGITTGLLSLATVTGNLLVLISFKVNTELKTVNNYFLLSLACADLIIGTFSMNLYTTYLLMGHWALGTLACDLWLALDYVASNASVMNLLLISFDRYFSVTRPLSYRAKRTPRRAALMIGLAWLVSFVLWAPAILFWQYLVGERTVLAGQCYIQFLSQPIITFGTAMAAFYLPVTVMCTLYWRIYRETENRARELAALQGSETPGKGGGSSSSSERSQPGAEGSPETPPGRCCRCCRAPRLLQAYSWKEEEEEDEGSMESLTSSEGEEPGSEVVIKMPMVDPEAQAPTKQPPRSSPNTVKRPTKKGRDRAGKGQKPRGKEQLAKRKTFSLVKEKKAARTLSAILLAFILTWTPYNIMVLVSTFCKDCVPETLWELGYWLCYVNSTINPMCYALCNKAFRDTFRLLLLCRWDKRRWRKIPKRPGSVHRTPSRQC
In words: mAChR M1 cell-based functional assay (calcium mobilization), PAM activity: increase in the EC20 acetylcholine response. The conditions noted are these: CHO-K1 cells expressing hM1; potentiation of EC20 acetylcholine response. In a few lines: (§1)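 CHO-K1 cells stably expressing hM1, loaded with Fluo-4 AM; calcium flux read on FDSS 6000. Compound (11-point, 1:3 CRC) added at 4 s, EC20 acetylcholine at 144 s, EC80 at 230 s; agonism from response to compound alone, PAM from increase in EC20 response; Emax relative to acetylcholine maximum, four-parameter fit.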
On the technique in general: Calcium flux is commonly read through the fluorescence of an indicator in the cells.

Assay [2] has as its target T1, human mAChR M1. In words: mAChR M1 cell-based functional assay (calcium mobilization), agonist activity upon compound addition. Conditions: CHO-K1 cells expressing hM1; for EC50: compound alone, before acetylcholine addition; for Emax: relative to the maximum for acetylcholine. In a few lines: as §1

For the compound `Cn1cc2c(-c3cc(F)c(Cn4cc(C(=O)NC5CCOCC5)c5nccnc5c4=O)c(F)c3)cccc2n1` [Compound A70, 6-(2,6-difluoro-4-(2-methyl-2H-indazol-4-yl)benzyl)-5-oxo-N-(tetrahydro-2H-pyran-4-yl)-5,6-dihydropyrido[3,4-b]pyrazine-8-carboxamide], at human mAChR M1 [1], the concentration giving a half-maximal response (EC50) – broadly, the concentration at which the effect is half-maximal – is 5.5 µM and the Emax (as a rule, the size of the effect at its maximum, as opposed to the concentration needed) is 45%. Besides, at human mAChR M1 [2], the EC50 is more than 10 µM and the Emax was less than 5%.

As for `Cn1cc(-c2ccc(Cn3cc(C(=O)N[C@H]4CCOC[C@@H]4O)c4ncncc4c3=O)c(F)c2)cn1` [Compound A90, 6-(2-fluoro-4-(1-methyl-1H-pyrazol-4-yl)benzyl)-N-((3R,4S)-3-hydroxytetrahydro-2H-pyran-4-yl)-5-oxo-5,6-dihydropyrido[4,3-d]pyrimidine-8-carboxamide], at human mAChR M1 [1], the EC50 is not below 10 µM and the Emax is 47%. In addition, on human mAChR M1 [2], the EC50 was more than 10 µM and the maximum response (Emax) is less than 5%.

On to `Cn1cc2c(-c3cc(F)c(Cn4cc(C(=O)N[C@H]5CCOC[C@@H]5O)c5ncncc5c4=O)c(F)c3)cccc2n1` [Compound A84, 6-(2,6-difluoro-4-(2-methyl-2H-indazol-4-yl)benzyl)-N-((3R,4S)-3-hydroxytetrahydro-2H-pyran-4-yl)-5-oxo-5,6-dihydropyrido[4,3-d]pyrimidine-8-carboxamide], for which the half-maximal effective concentration (EC50) at human mAChR M1 [1] was not below 10 µM; at human mAChR M1 [2], more than 10 µM. For the same compound, the figures for the Emax on human mAChR M1 [1] and at human mAChR M1 [2] were 40% and less than 5%, respectively.

Regarding `Cn1cc2c(-c3cc(F)c(Cn4cc(C(=O)NCC(C)(C)O)c5nccnc5c4=O)c(F)c3)cccc2n1` [Compound A73, 6-(2,6-difluoro-4-(2-methyl-2H-indazol-4-yl)benzyl)-N-(2-hydroxy-2-methylpropyl)-5-oxo-5,6-dihydropyrido[3,4-b]pyrazine-8-carboxamide], at human mAChR M1 [1], the EC50 came to 4.04 µM and the Emax is 67%. For the same compound, on human mAChR M1 [2], the EC50 was more than 10 µM and the maximum response (Emax) was less than 5%.

For `Cn1cc(-c2ccc(Cn3cc(C(=O)N[C@H]4CCC[C@@H]4O)c4nccnc4c3=O)c(F)c2)cn1` [Compound A79, 6-(2-fluoro-4-(1-methyl-1H-pyrazol-4-yl)benzyl)-N-((1S,2S)-2-hydroxycyclopentyl)-5-oxo-5,6-dihydropyrido[3,4-b]pyrazine-8-carboxamide], the figures for the concentration giving a half-maximal response (EC50) at human mAChR M1 [1] and at human mAChR M1 [2] were not below 10 µM and more than 10 µM, respectively. The Emax was 51% at human mAChR M1 [1] and less than 5% on human mAChR M1 [2].

Turning to `CC[C@H](C)[C@@H](CO)NC(=O)c1cn(Cc2c(F)cc(-c3cccc4nn(C)cc34)cc2F)c(=O)c2nccnc12` [Compound A76, 6-(2,6-difluoro-4-(2-methyl-2H-indazol-4-yl)benzyl)-N-((2S,3S)-1-hydroxy-3-methylpentan-2-yl)-5-oxo-5,6-dihydropyrido[3,4-b]pyrazine-8-carboxamide], at human mAChR M1 [1], the 50% effective concentration (EC50) came to 4.33 µM and the Emax turned out to be 53%. In addition, on human mAChR M1 [2], the half-maximal effective concentration (EC50) is more than 10 µM and the maximal response (Emax) is less than 5%.

Consider `Cn1cc(-c2ccc(Cn3cc(C(=O)N[C@H]4CCCCC[C@@H]4O)c4ncccc4c3=O)c(F)c2)cn1` [Compound A24, 6-(2-fluoro-4-(1-methyl-1H-pyrazol-4-yl)benzyl)-N-((1S,2S)-2-hydroxycycloheptyl)-5-oxo-5,6-dihydro-1,6-naphthyridine-8-carboxamide], for which, on human mAChR M1 [1], the EC50 was found to be 0.35 µM and the Emax was determined as 69%. On human mAChR M1 [2], the half-maximal effective concentration (EC50) is 6.12 µM and the Emax is 16%.

`O=C(N[C@H]1CCCCC[C@@H]1O)c1cn(Cc2ccc(-n3cccn3)cc2)c(=O)c2cccnc12` [Compound A25, 6-(4-(1H-pyrazol-1-yl)benzyl)-N-((1S,2S)-2-hydroxycycloheptyl)-5-oxo-5,6-dihydro-1,6-naphthyridine-8-carboxamide]: at human mAChR M1 [1], the half-maximal effective concentration (EC50) came out at 0.97 µM and the Emax is 68%. At human mAChR M1 [2], the 50% effective concentration (EC50) was more than 10 µM and the Emax is less than 5%.

On to `Cn1ccc(-c2ccc(Cn3cc(C(=O)N[C@H]4CCOC[C@@H]4O)c4nccnc4c3=O)c(F)c2)n1` [Compound A63, 6-(2-fluoro-4-(1-methyl-1H-pyrazol-3-yl)benzyl)-N-((3R,4S)-3-hydroxytetrahydro-2H-pyran-4-yl)-5-oxo-5,6-dihydropyrido[3,4-b]pyrazine-8-carboxamide], for which, at human mAChR M1 [1], the EC50 was not below 10 µM and the maximal effect (Emax) was found to be 55%. Further, on human mAChR M1 [2], the EC50 is more than 10 µM and the Emax stood at 7%.

For the compound `Cn1cc(-c2ccc(Cn3cc(C(=O)NC4CC5(COC5)C4)c4nccn4c3=O)c(F)c2)cn1` [Compound B9, 6-(2-fluoro-4-(1-methyl-1H-pyrazol-4-yl)benzyl)-5-oxo-N-(2-oxaspiro[3.3]heptan-6-yl)-5,6-dihydroimidazo[1,2-c]pyrimidine-8-carboxamide], on human mAChR M1 [1], the EC50 was 2.06 µM and the maximum response (Emax) was 61%. Further, the Emax at human mAChR M1 [2] is 17%.

In the case of `Cn1cc(-c2ccc(Cn3cc(C(=O)N[C@H]4CCCCC[C@@H]4O)c4occc4c3=O)c(F)c2)cn1` [Compound D16, 5-(2-fluoro-4-(1-methyl-1H-pyrazol-4-yl)benzyl)-N-((1S,2S)-2-hydroxycycloheptyl)-4-oxo-4,5-dihydrofuro[3,2-c]pyridine-7-carboxamide], on human mAChR M1 [1], the EC50 worked out at 2.02 µM and the Emax came out at 75%. Also, at human mAChR M1 [2], the 50% effective concentration (EC50) is more than 10 µM and the maximum response (Emax) is 8%.

For `Cn1cc(-c2ccc(Cn3cc(C(=O)N[C@H]4CCCCC[C@@H]4O)c4nccnc4c3=O)c(F)c2)cn1` [Compound A78, 6-(2-fluoro-4-(1-methyl-1H-pyrazol-4-yl)benzyl)-N-((1S,2S)-2-hydroxycycloheptyl)-5-oxo-5,6-dihydropyrido[3,4-b]pyrazine-8-carboxamide], at human mAChR M1 [1], the EC50 came out at 2.98 µM and the maximal response (Emax) is 67%. The Emax on human mAChR M1 [2] was 5%.

For `Cn1ccc(-c2ccc(Cn3cc(C(=O)N[C@H]4CCOC[C@@H]4O)c4sccc4c3=O)c(F)c2)n1` [Compound D26, 5-(2-fluoro-4-(1-methyl-1H-pyrazol-3-yl)benzyl)-N-((3R,4S)-3-hydroxytetrahydro-2H-pyran-4-yl)-4-oxo-4,5-dihydrothieno[3,2-c]pyridine-7-carboxamide], the half-maximal effective concentration (EC50) on human mAChR M1 [1] and on human mAChR M1 [2] was more than 10 µM throughout. Besides, the Emax is 34% at human mAChR M1 [1] and less than 5% on human mAChR M1 [2].

Regarding `Cn1ccc(-c2ccc(Cn3cc(C(=O)N[C@H]4CCCC[C@@H]4O)c4nccnc4c3=O)c(F)c2)n1` [Compound A55, 6-(2-fluoro-4-(1-methyl-1H-pyrazol-3-yl)benzyl)-N-((1S,2S)-2-hydroxycyclohexyl)-5-oxo-5,6-dihydropyrido[3,4-b]pyrazine-8-carboxamide], the EC50 is 7.9 µM on human mAChR M1 [1] and more than 10 µM at human mAChR M1 [2]. The Emax at human mAChR M1 [1] was found to be 67%; at human mAChR M1 [2], 12%.

Consider `O=C(N[C@H]1CCCCC[C@@H]1O)c1cn(Cc2ccc(-n3cccn3)cc2)c(=O)n2ccnc12` [Compound B16, 6-(4-(1H-pyrazol-1-yl)benzyl)-N-((1S,2S)-2-hydroxycycloheptyl)-5-oxo-5,6-dihydroimidazo[1,2-c]pyrimidine-8-carboxamide], for which the figures for the concentration for a half-maximal effect (EC50) on human mAChR M1 [1] and on human mAChR M1 [2] were 0.52 µM and more than 10 µM, respectively. Also, the maximum response (Emax) is 81% on human mAChR M1 [1] and less than 5% at human mAChR M1 [2].

In the case of `Cc1cc(-c2cc(F)c(Cn3cc(C(=O)N[C@H]4CCC[C@@H]4O)c4ncccc4c3=O)c(F)c2)ccn1` [Compound A38, 6-(2,6-difluoro-4-(2-methylpyridin-4-yl)benzyl)-N-((1S,2S)-2-hydroxycyclopentyl)-5-oxo-5,6-dihydro-1,6-naphthyridine-8-carboxamide], at human mAChR M1 [1], the concentration for a half-maximal effect (EC50) worked out at 0.57 µM and the Emax was 25%. Moreover, on human mAChR M1 [2], the EC50 is more than 10 µM and the Emax is less than 5%.

In the case of `Cn1nccc1-c1ccc(Cn2cc(C(=O)N[C@H]3CCCC[C@@H]3O)c3ncccc3c2=O)c(F)c1` [Compound A46, 6-(2-fluoro-4-(1-methyl-1H-pyrazol-5-yl)benzyl)-N-((1S,2S)-2-hydroxycyclohexyl)-5-oxo-5,6-dihydro-1,6-naphthyridine-8-carboxamide], on human mAChR M1 [1], the concentration for a half-maximal effect (EC50) worked out at 1.13 µM and the Emax was determined as 41%. Moreover, at human mAChR M1 [2], the 50% effective concentration (EC50) is more than 10 µM and the maximum response (Emax) was less than 5%.

Turning to `Cn1ccc(-c2ccc(Cn3cc(C(=O)N[C@H]4CCCC[C@@H]4O)c4ncn(C)c4c3=O)c(F)c2)n1` [Compound C1, 5-(2-Fluoro-4-(1-methyl-1H-pyrazol-3-yl)benzyl)-N-((1S,2S)-2-hydroxycyclohexyl)-3-methyl-4-oxo-4,5-dihydro-3H-imidazo[4,5-c]pyridine-7-carboxamide], at human mAChR M1 [1], the EC50 was 0.25 µM. The results for the Emax at human mAChR M1 [1] and at human mAChR M1 [2] were 65% and 8%, respectively.

In the case of `O=C(N[C@H]1CCC[C@@H]1O)c1cn(Cc2ccc(-n3cccn3)cc2)c(=O)n2ccnc12` [Compound B14, 6-(4-(1H-pyrazol-1-yl)benzyl)-N-((1S,2S)-2-hydroxycyclopentyl)-5-oxo-5,6-dihydroimidazo[1,2-c]pyrimidine-8-carboxamide], at human mAChR M1 [1], the EC50 amounted to 1.33 µM and the Emax turned out to be 70%. At human mAChR M1 [2], the maximal response (Emax) is 28%.
